Assays:
Format in all cases: in vivo
[1] = tested on: ragweed (common ragweed, Ambrosia artemisiifolia); test: Test A postemergence application, visual injury rating 0-100; conditions: 10 days
Text: (§1) Seeds of plant species selected from barnyardgrass (Echinochloa crus-galli), blackgrass (Alopecurus myosuroides), corn (Zea mays), foxtail, giant (giant foxtail, Setaria faberi), green foxtail (Setaria viridis), goosegrass (Eleusine indica), kochia (Bassia scoparia), oat, wild (wild oat, Avena fatua), palmer (palmer amaranth, palmer pigweed, Amaranthus palmeri), ragweed (common ragweed, Ambrosia artemisiifolia), ryegrass, Italian (italian ryegrass, Lolium multiflorum), soybean (Glycine max) and wheat (Triticum aestivum) were planted into a blend of loam soil and sand and treated preemergence with a directed soil spray using test chemicals formulated in a non-phytotoxic solvent mixture which included a surfactant.
(§2) At the same time, plants selected from these crops and weed species and also galium (catchweed bedstraw, Galium aparine) and horseweed (Erigeron canadensis) were planted in pots containing the same blend of loam soil and sand and treated with postemergence applications of test chemicals formulated in the same manner. Plants ranged in height from 2 to 10 cm and were in the one- to two-leaf stage for the postemergence treatment. Treated plants and untreated controls were maintained in a greenhouse for 10 days, after which time all treated plants were compared to untreated controls and visually evaluated for injury. Plant response ratings, summarized in Table A, are based on a 0 to 100 scale where 0 is no effect and 100 is complete control. A dash (-) response means no test result.

[2] = tested on: ryegrass, Italian (italian ryegrass, Lolium multiflorum); test: as above; conditions: 10 days
Text: as §1, §2

[3] = tested on: barnyardgrass (Echinochloa crus-galli); test: as above; conditions: 10 days
Text: as §1, §2

[4] = tested on: blackgrass (Alopecurus myosuroides); test: as above; conditions: 10 days
Text: as §1, §2

[5] = tested on: horseweed (Erigeron canadensis); test: as above; conditions: 10 days
Text: as §1, §2

[6] = tested on: oat, wild (wild oat, Avena fatua); test: as above; conditions: 10 days
Text: as §1, §2

[7] = tested on: kochia (Bassia scoparia); test: as above; conditions: 10 days
Text: as §1, §2

[8] = tested on: wheat (Triticum aestivum); test: as above; conditions: 10 days
Text: as §1, §2

[9] = tested on: corn (Zea mays); test: as above; conditions: 10 days
Text: as §1, §2

[10] = tested on: green foxtail (Setaria viridis); test: as above; conditions: 10 days
Text: as §1, §2

[11] = tested on: soybean (Glycine max); test: as above; conditions: 10 days
Text: as §1, §2

[12] = tested on: palmer (palmer amaranth, palmer pigweed, Amaranthus palmeri); test: as above; conditions: 10 days
Text: as §1, §2

[13] = tested on: ragweed (common ragweed, Ambrosia artemisiifolia); test: Test A preemergence soil spray, visual injury rating 0-100; conditions: 10 days, 0 = no effect, 100 = complete control
Text: as §1, §2

[14] = tested on: ryegrass, Italian (italian ryegrass, Lolium multiflorum); test: as above; conditions: 10 days, 0 = no effect, 100 = complete control
Text: as §1, §2

[15] = tested on: barnyardgrass (Echinochloa crus-galli); test: as above; conditions: 10 days, 0 = no effect, 100 = complete control
Text: as §1, §2

[16] = tested on: blackgrass (Alopecurus myosuroides); test: as above; conditions: 10 days, 0 = no effect, 100 = complete control
Text: as §1, §2

[17] = tested on: oat, wild (wild oat, Avena fatua); test: as above; conditions: 10 days, 0 = no effect, 100 = complete control
Text: as §1, §2

[18] = tested on: kochia (Bassia scoparia); test: as above; conditions: 10 days, 0 = no effect, 100 = complete control
Text: as §1, §2

[19] = tested on: wheat (Triticum aestivum); test: as above; conditions: 10 days, 0 = no effect, 100 = complete control
Text: as §1, §2

[20] = tested on: corn (Zea mays); test: as above; conditions: 10 days, 0 = no effect, 100 = complete control
Text: as §1, §2

[21] = tested on: green foxtail (Setaria viridis); test: as above; conditions: 10 days, 0 = no effect, 100 = complete control
Text: as §1, §2

[22] = tested on: soybean (Glycine max); test: as above; conditions: 10 days, 0 = no effect, 100 = complete control
Text: as §1, §2

[23] = tested on: palmer (palmer amaranth, palmer pigweed, Amaranthus palmeri); test: as above; conditions: 10 days, 0 = no effect, 100 = complete control
Text: as §1, §2

[24] = 31 g ai/ha, postemergence, 0 = no effect, 100 = complete control
[25] = Postemergence, 125 g ai/ha, 0 is no effect, 100 is complete control

CONC(=O)C1CC(NC(=O)C2(C)CN(c3cc(F)cc(F)c3)C(=O)O2)CO1 (stereo not shown) [Compound 40]
10: Barnyardgrass plant response rating (0-100) [3, 24] | Soybean plant response rating (0 to 100 scale) ([22]; 125 g ai/ha)
60: Ryegrass, Italian plant response rating (0 to 100 scale) [2, 25] | Soybean plant response rating (0 to 100 scale) [11, 25]
90: Oat, Wild plant response rating (0-100) [6, 24] | Oat, Wild plant response rating (0 to 100 scale) [6, 25] | Foxtail, Green plant response rating (0 to 100 scale) [10, 25] | Ryegrass, Italian plant response rating (0 to 100 scale) ([14]; 125 g ai/ha) | Oat, Wild plant response rating (0 to 100 scale) ([17]; 125 g ai/ha) | Wheat plant response rating (0 to 100 scale) ([19]; 125 g ai/ha)
50: Blackgrass plant response rating (0-100) ([16]; 31 g ai/ha) | Oat, Wild plant response rating (0-100) ([17]; 31 g ai/ha) | Wheat plant response rating (0-100) ([19]; 31 g ai/ha)
100: Barnyardgrass plant response rating (0 to 100 scale) [3, 25] | Blackgrass plant response rating (0-100) [4, 24] | Blackgrass plant response rating (0 to 100 scale) [4, 25] | Corn plant response rating (0 to 100 scale) [9, 25]
70: Kochia plant response rating (0 to 100 scale) [7, 25] | Wheat plant response rating (0-100) [8, 24]
0: Ragweed plant response rating (0-100) [1, 24] | Horseweed plant response rating (0 to 100 scale) [5, 25] | Kochia plant response rating (0-100) [7, 24] | Foxtail, Green plant response rating (0-100) [10, 24] | Soybean plant response rating (0-100) [11, 24] | Amaranth, Palmer plant response rating (0-100) [12, 24] | Ragweed plant response rating (0-100) ([13]; 31 g ai/ha) | Ragweed plant response rating (0 to 100 scale) ([13]; 125 g ai/ha) | Barnyardgrass plant response rating (0-100) ([15]; 31 g ai/ha) | Kochia plant response rating (0-100) ([18]; 31 g ai/ha) | Kochia plant response rating (0 to 100 scale) ([18]; 125 g ai/ha) | Corn plant response rating (0-100) ([20]; 31 g ai/ha) | Corn plant response rating (0 to 100 scale) ([20]; 125 g ai/ha) | Foxtail, Green plant response rating (0-100) ([21]; 31 g ai/ha) | Soybean plant response rating (0-100) ([22]; 31 g ai/ha) | Amaranth, Palmer plant response rating (0-100) ([23]; 31 g ai/ha) | Amaranth, Palmer plant response rating (0 to 100 scale) ([23]; 125 g ai/ha)
20: Ragweed plant response rating (0 to 100 scale) [1, 25] | Ryegrass, Italian plant response rating (0-100) [2, 24] | Corn plant response rating (0-100) [9, 24] | Ryegrass, Italian plant response rating (0-100) ([14]; 31 g ai/ha) | Foxtail, Green plant response rating (0 to 100 scale) ([21]; 125 g ai/ha)
80: Wheat plant response rating (0 to 100 scale) [8, 25] | Blackgrass plant response rating (0 to 100 scale) ([16]; 125 g ai/ha)
30: Horseweed plant response rating (0-100) [5, 24] | Amaranth, Palmer / Pigweed, Palmer plant response rating (0 to 100 scale) [12, 25] | Barnyardgrass plant response rating (0 to 100 scale) ([15]; 125 g ai/ha)

Reference: patent US20260285850A1, “SUBSTITUTED OXAZOLIDINONES AND IMIDAZOLINONES AS HERBICIDES” (FMC CORPORATION, priority 2023, published 2026)
